Test results from US11427595B2, “Compositions and methods for inhibiting viral infection” (Trustees of Boston University, priority 2018, dated 2022).

What was measured:
Huh7.5.1 cells [1] = assay: MTS cell viability assay; type: cell-based, human; conditions: 3 h treatment, 72 h incubation
Source text: In this comparison, niclosamide was used as a positive control, which is known as HCV inhibitor (unclear mechanisms). Data from CellTiter-Glo assay was obtained from separate experiments conducted on a different date.
MTS (3-(4,5-dimethylthiazol-2-yl)-5-(3-carboxymethoxyphenyl)-2-(4-sulfophenyl)-2H-tetrazolium)) assay is a colorimetric assay used to determine the mitochondrial metabolic rate by quantifying the reduced formazan product of MTS in cells to reflect viable cells. To determine the CC50 of each compound, Huh7.5.1 cells were treated with compounds or DMSO at indicated doses for 3 h in 96-well plates. After removal of compounds, cells were further incubated for 72 h prior to conducting the viability assay. The MTS assay in this study is accordance with a protocol provided by manufacturer (Promega, Madison, Wis. USA). One-fifth volume of MTS reagent was added into the culture supernatant at indicated time points. Plates were incubated at 37° C. for 3 hours with 5% CO2 followed by measuring the absorbance at 490 nanometers (nm) with an ELISA reader (SpectraMax Plus 385, Molecular Devices, USA). Percentages of toxicity were calculated using the formulas: 100-percentage of vial cells relative to that from the dimethyl sulfoxide (DMSO) treated group (100%) (n=3) (FIG. 68-FIG. 71).

JFH-1 HCVcc-Luc = assay: microbe, parasite or virus in culture; type: cell-based, Hepatitis C virus; conditions: for EC50: Hepatitis C virus, Huh-7.5.1, read-out: EC50, inhibition of HCV infection; for inhibition of HCV infection (in words): Huh7.5.1 cells, comparisons are to aglaroxin C (6)
[2] = Cytotoxicity, CellTiter-Glo Cell Viability Luminescent Assay; type: cell-based, human; conditions: human; Huh7.5.1 cells, 3 h treatment, viability after 72 h; concentration giving 50% cell death
Procedure: (§1) To determine the […] of each compound, Huh7.5.1 cells were treated with compounds or DMSO at indicated doses for 3 h in 96-well plates. After removal of compounds, cells were further incubated for 72 h prior to the viability assay. The numbers of viable cells in culture were determined using the CellTiter-Glo Cell Viability Luminescent Assay kit according to the manufacturer's instruction (Promega). Percentages of toxicity were calculated using the formulas: 100-percentage of vial cells relative to that from the dimethyl sulfoxide (DMSO) treated group (100%) (n=3) (FIG. 20-FIG. 57).

Huh7.5.1 cells [3] = assay: as above; type: cell-based, human; conditions: Huh7.5.1 cells; for cytotoxicity (in words): comparisons are to aglaroxin C (6)
Procedure: as §1

[4] = test system: cap-dependent Firefly luciferase (FLuc) translation; assay: In vitro translation of bicistronic FF/HCV/Ren mRNA in Krebs-2 extracts, cap-dependent; type: biochemical; conditions: 1 μM, relative to DMSO
Source text: In this system, Firefly luciferase (FLuc) translation is cap-dependent whereas Renilla luciferase (RLuc) expression HCV-IRES dependent. […] Results are presented relative to values obtained in the presence of DMSO ad expressed as mean±error of two biological replicates.
In this system, translation of the Firefly luciferase (FLuc) translation is cap-dependent whereas Renilla luciferase (RLuc) translation is dependent upon the HCV internal ribosome entry site (IRES) FIG. 11A.
In vitro transcriptions and translations were performed as described previously. Plasmid encoding the bicistronic FF/HCV/Ren open reading frame was linearized with BamHI and m^7Gppp-capped mRNA was produced by in vitro transcription reactions using SP6 RNA polymerase. In vitro translation reactions were performed with S10 extracts prepared from Kreb-2 cells and programmed with 4 ng/uL of in vitro transcribed mRNA. Firefly (FF) and Renilla (Ren) luciferase activities were measured on a Berthold Lumat LB9507 Luminometer and values normalized against vehicle control, which was set at 1.

translation = conditions: previous studies; cited from earlier work

Compound: COc1ccc(-c2nc3c(c(=O)[nH]2)[C@@H](c2ccccc2)[C@]2(c4ccc(OC)cc4)Oc4cc(OC)cc(OC)c4[C@]32O)cc1 (racemic) [12k, (5R,5aR,10bS)-10b-Hydroxy-8,10-dimethoxy-2,5a-bis(4-methoxyphenyl)-5-phenyl-3,5,5a,10b-tetrahydro-4H-benzofuro[2′,3′:4,5]cyclopenta[1,2-d]pyrimidin-4-one]
- toxicity curve in MTS assay compared with CellTiter-Glo assay (Huh7.5.1 cells [1]): nearly identical toxicity curves

Compound: COc1ccc([C@@]23Oc4cc(OC)cc(OC)c4[C@]2(O)c2nc(-c4ccc(C(F)(F)F)cc4)[nH]c(=O)c2[C@H]3c2ccccc2)cc1 (racemic) [12o, (5R,5aR,10bS)-10b-Hydroxy-8,10-dimethoxy-5a-(4-methoxyphenyl)-5-phenyl-2-(4-(trifluoromethyl)phenyl)-3,5,5a,10b-tetrahydro-4H-benzofuro[2′,3′:4,5]cyclopenta[1,2-d]pyrimidin-4-one]
- EC50 (JFH-1 HCVcc-Luc): 0.24 µM
- CC50 [2]: 10 µM
- maximum cytotoxicity plateau, cell death (Huh7.5.1 cells [3]; dose-response up to 200 μM): ~100%
- toxicity curve in MTS assay compared with CellTiter-Glo assay (Huh7.5.1 cells [1]): nearly identical toxicity curves

Compound: COc1ccc([C@@]23Oc4cc(OC)cc(OC)c4[C@]2(O)c2nc(-c4ccccc4)[nH]c(=O)c2[C@H]3c2ccccc2)cc1 [12a, (5R,5aR,10bS)-10b-Hydroxy-8,10-dimethoxy-5a-(4-methoxyphenyl)-2,5-diphenyl-3,5,5a,10b-tetrahydro-4H-benzofuro[2′,3′:4,5]cyclopenta[1,2-d]pyrimidin-4-one]
- EC50 (JFH-1 HCVcc-Luc): 0.42 µM
- inhibition of HCV infection (in words) (JFH-1 HCVcc-Luc): promising increase of inhibition
- CC50 [2]: 8.1 µM
- cytotoxicity (in words) (Huh7.5.1 cells [3]): plateauing of cytotoxicity

Compound: COc1ccc([C@@]23Oc4cc(OC)cc(OC)c4[C@]2(O)c2nc(-c4ccccn4)[nH]c(=O)c2[C@H]3c2ccccc2)cc1 [12ab, (5R,5aR,10bS)-10b-Hydroxy-8,10-dimethoxy-5a-(4-methoxyphenyl)-5-phenyl-2-(pyridin-2-yl)-3,5,5a,10b-tetrahydro-4H-benzofuro[2′,3′:4,5]cyclopenta[1,2-d]pyrimidin-4-one]
- inhibition of HCV infection (in words) (JFH-1 HCVcc-Luc): slightly increased inhibition

Compound: COc1ccc([C@@]23Oc4cc(OC)cc(OC)c4[C@]2(O)c2nc4n(c(=O)c2[C@H]3c2ccccc2)CCCC4)cc1 [12ad, (5aR,6R,13bS)-13b-Hydroxy-1,3-dimethoxy-5a-(4-methoxyphenyl)-6-phenyl-6,9,10,11,12,13b-hexahydrobenzofuro[2′,3′:4,5]cyclopenta[1,2-d]pyrido[1,2-a]pyrimidin-7(5aH)-one]
- inhibition of HCV infection (in words) (JFH-1 HCVcc-Luc): moderate antiviral activity

Compound: COc1ccc([C@@]23Oc4cc(OC)cc(OC)c4[C@]2(O)c2nc(-c4ccccc4)n(C)c(=O)c2[C@H]3c2ccccc2)cc1 [12ae, (5R,5aR,10bS)-10b-Hydroxy-8,10-dimethoxy-5a-(4-methoxyphenyl)-3-methyl-2,5-diphenyl-3,5,5a,10b-tetrahydro-4H-benzofuro[2′,3′:4,5]cyclopenta[1,2-d]pyrimidin-4-one]
- EC50 (JFH-1 HCVcc-Luc): 0.2 µM
- CC50 [2]: 7.3 µM
- cytotoxicity (in words) (Huh7.5.1 cells [3]): plateauing of cytotoxicity

Compound: COc1ccc([C@@]23Oc4cc(OC)cc(OC)c4[C@]2(O)c2nc(Nc4ccccc4)n(-c4ccccc4)c(=O)c2[C@H]3c2ccccc2)cc1 [12af, (5R,5aR,10bS)-10b-Hydroxy-8,10-dimethoxy-5a-(4-methoxyphenyl)-3,5-diphenyl-2-(phenylamino)-3,5,5a,10b-tetrahydro-4H-benzofuro[2′,3′:4,5]cyclopenta[1,2-d]pyrimidin-4-one]
- inhibition of HCV infection (in words) (JFH-1 HCVcc-Luc): moderate antiviral activity

Compound: COc1ccc([C@@]23Oc4cc(OC)cc(OC)c4[C@]2(O)c2nc(-c4ccccc4)[nH]c(=O)c2[C@@H]3c2ccccc2)cc1 [12ah, (5S,5aR,10bS)-10b-Hydroxy-8,10-dimethoxy-5a-(4-methoxyphenyl)-2,5-diphenyl-3,5,5a,10b-tetrahydro-4H-benzofuro[2′,3′:4,5]cyclopenta[1,2-d]pyrimidin-4-one]
- inhibition of HCV infection (in words) (JFH-1 HCVcc-Luc): inactive
- cytotoxicity (in words) (Huh7.5.1 cells [3]): no cytotoxicity

Compound: COc1ccc([C@@]23Oc4cc(OC)cc(OC)c4[C@]2(OC)c2nc(-c4ccccc4)n(C)c(=O)c2[C@H]3c2ccccc2)cc1 [12ai, (5R,5aR,10bS)-8,10,10b-Trimethoxy-5a-(4-methoxyphenyl)-3-methyl-2,5-diphenyl-3,5,5a,10b-tetrahydro-4H-benzofuro[2′,3′:4,5]cyclopenta[1,2-d]pyrimidin-4-one]
- EC50 (JFH-1 HCVcc-Luc): 9.2 µM

Compound: COc1ccc([C@@]23Oc4cc(OC)cc(OC)c4[C@]2(O)c2nc(-c4ccccc4)nc(OC)c2[C@H]3c2ccccc2)cc1 [12aj, (5R,5aR,10bS)-4,8,10-Trimethoxy-5a-(4-methoxyphenyl)-2,5-diphenyl-5,5a-dihydro-10bH-benzofuro[2′,3′:4,5]cyclopenta[1,2-d]pyrimidin-10b-ol]
- inhibition of HCV infection (in words) (JFH-1 HCVcc-Luc): inactive
- cytotoxicity (in words) (Huh7.5.1 cells [3]): non-toxic

Compound: COc1ccc([C@@]23Oc4cc(OC)cc(OC)c4[C@]2(O)c2nc(C4CCCCC4)[nH]c(=O)c2[C@H]3c2ccccc2)cc1 [12e, (5R,5aR,10bS)-2-Cyclohexyl-10b-hydroxy-8,10-dimethoxy-5a-(4-methoxyphenyl)-5-phenyl-3,5,5a,10b-tetrahydro-4H-benzofuro[2′,3′:4,5]cyclopenta[1,2-d]pyrimidin-4-one]
- EC50 (JFH-1 HCVcc-Luc): 2.5 µM
- cytotoxicity (in words) (Huh7.5.1 cells [3]): plateauing of cytotoxicity

Compound: COc1ccc([C@@]23Oc4cc(OC)cc(OC)c4[C@]2(O)c2nc(C4CC4)[nH]c(=O)c2[C@H]3c2ccccc2)cc1 [12h, (5R,5aR,10bS)-2-Cyclopropyl-10b-hydroxy-8,10-dimethoxy-5a-(4-methoxyphenyl)-5-phenyl-3,5,5a,10b-tetrahydro-4H-benzofuro[2′,3′:4,5]cyclopenta[1,2-d]pyrimidin-4-one]
- inhibition of HCV infection (in words) (JFH-1 HCVcc-Luc): increased inhibition

Compound: COc1ccc([C@@]23Oc4cc(OC)cc(OC)c4[C@]2(O)c2nc(N4CCOCC4)[nH]c(=O)c2[C@H]3c2ccccc2)cc1 [12j, (5R,5aR,10bS)-10b-Hydroxy-8,10-dimethoxy-5a-(4-methoxyphenyl)-2-morpholino-5-phenyl-3,5,5a,10b-tetrahydro-4H-benzofuro[2′,3′:4,5]cyclopenta[1,2-d]pyrimidin-4-one]
- inhibition of HCV infection (in words) (JFH-1 HCVcc-Luc): moderate antiviral activity

Compound: COc1ccc([C@@]23Oc4cc(OC)cc(OC)c4[C@]2(O)c2nc(-c4cnccn4)[nH]c(=O)c2[C@H]3c2ccccc2)cc1 [12y, (5R,5aR,10bS)-10b-Hydroxy-8,10-dimethoxy-5a-(4-methoxyphenyl)-5-phenyl-2-(pyrazin-2-yl)-3,5,5a,10b-tetrahydro-4H-benzofuro[2′,3′:4,5]cyclopenta[1,2-d]pyrimidin-4-one]
- inhibition of HCV infection (in words) (JFH-1 HCVcc-Luc): slightly increased inhibition

Compound: COc1ccc([C@]23Oc4cc(OC)cc(OC)c4[C@@]2(O)c2nc(-c4ccc(C)cc4)[nH]c(=O)c2[C@@H]3c2ccccc2)cc1 [(−)-12l]
- inhibition of HCV infection (in words) (JFH-1 HCVcc-Luc): inactive
- cytotoxicity (in words) (Huh7.5.1 cells [3]): non-toxic

Compound: COc1ccc([C@]23Oc4cc(OC)cc(OC)c4[C@@]2(O)c2nc(-c4cccc(OC)c4)[nH]c(=O)c2[C@@H]3c2ccccc2)cc1 [(−)-12s]
- inhibition of HCV infection (in words) (JFH-1 HCVcc-Luc): inactive
- cytotoxicity (in words) (Huh7.5.1 cells [3]): non-toxic

Compound: CONC(=O)[C@H]1[C@@H](O)[C@@]2(O)c3c(OC)cc(OC)cc3O[C@@]2(c2ccc(OC)cc2)[C@@H]1c1ccccc1 [CR-1-31-B, reference compound]
- translation inhibition of firefly luciferase (cap-dependent) [4]: strong inhibition

Compound: COC(=O)[C@H]1[C@@H](O)[C@@]2(O)c3c(OC)cc(O[C@@H]4O[C@@H]([C@H](O)CO)CO[C@H]4OC)cc3O[C@@]2(c2ccc(OC)cc2)[C@@H]1c1ccccc1 [silvestrol]
- translation inhibition (in words) (translation): excellent translation inhibitor
